Test results published in patent publication US11471537B2, “Oligomer extended insulin-Fc conjugates” (Novo Nordisk A/S, priority 2017, dated 2022).

What was measured:
[1] = molecular target: insulin receptor A (Homo sapiens, UniProt P06213); assay: Insulin receptor affinity; assay type: binding; details: relative to affinity of human insulin for insulin receptor A (100%)
[2] = system: Sprague-Dawley rats; assay: PD studies: blood glucose after subcutaneous dosing; assay type: in vivo; details: sc
Description: The pharmacodynamic effect of the Insulin Fc conjugates of the examples were investigated in normal male Sprague-Dawley rats weighing approx. 350 g at study start.
Animals had free access to food and water during the experiment period. They were dosed subcutaneously in the neck region with a dose of 30 nmol/kg (unless otherwise stated in the figures below). Blood samples for blood glucose and plasma insulin analysis were collected from the tongue veins up to 10 days post dosing. Blood glucose was measured using Biosen S Line (EKF).

[3] = system: isolated rat adipocytes; assay: Insulin-stimulated lipogenesis; assay type: cell-based; details: 1% HSA; relative to the activity of human insulin (100%)
Description: Insulin-stimulated lipogenesis was measured in isolated rat adipocytes in presence of 1% HSA as described in Moody A J, Stan M A, Stan M, Gliemann J. A Simple Free Fat Cell Bioassay for Insulin. Hormone And Metabolic Research. 1974; 6(1):12-6, see results in Table 6.

[4] = dose 30 nmol/kg, time 0.041667 days
[5] = dose 30 nmol/kg, time 0.125 days
[6] = dose 30 nmol/kg, time 0.291667 days

Chain of insulin receptor A (P06213 28-1370 isoform P06213-2 limits assumed): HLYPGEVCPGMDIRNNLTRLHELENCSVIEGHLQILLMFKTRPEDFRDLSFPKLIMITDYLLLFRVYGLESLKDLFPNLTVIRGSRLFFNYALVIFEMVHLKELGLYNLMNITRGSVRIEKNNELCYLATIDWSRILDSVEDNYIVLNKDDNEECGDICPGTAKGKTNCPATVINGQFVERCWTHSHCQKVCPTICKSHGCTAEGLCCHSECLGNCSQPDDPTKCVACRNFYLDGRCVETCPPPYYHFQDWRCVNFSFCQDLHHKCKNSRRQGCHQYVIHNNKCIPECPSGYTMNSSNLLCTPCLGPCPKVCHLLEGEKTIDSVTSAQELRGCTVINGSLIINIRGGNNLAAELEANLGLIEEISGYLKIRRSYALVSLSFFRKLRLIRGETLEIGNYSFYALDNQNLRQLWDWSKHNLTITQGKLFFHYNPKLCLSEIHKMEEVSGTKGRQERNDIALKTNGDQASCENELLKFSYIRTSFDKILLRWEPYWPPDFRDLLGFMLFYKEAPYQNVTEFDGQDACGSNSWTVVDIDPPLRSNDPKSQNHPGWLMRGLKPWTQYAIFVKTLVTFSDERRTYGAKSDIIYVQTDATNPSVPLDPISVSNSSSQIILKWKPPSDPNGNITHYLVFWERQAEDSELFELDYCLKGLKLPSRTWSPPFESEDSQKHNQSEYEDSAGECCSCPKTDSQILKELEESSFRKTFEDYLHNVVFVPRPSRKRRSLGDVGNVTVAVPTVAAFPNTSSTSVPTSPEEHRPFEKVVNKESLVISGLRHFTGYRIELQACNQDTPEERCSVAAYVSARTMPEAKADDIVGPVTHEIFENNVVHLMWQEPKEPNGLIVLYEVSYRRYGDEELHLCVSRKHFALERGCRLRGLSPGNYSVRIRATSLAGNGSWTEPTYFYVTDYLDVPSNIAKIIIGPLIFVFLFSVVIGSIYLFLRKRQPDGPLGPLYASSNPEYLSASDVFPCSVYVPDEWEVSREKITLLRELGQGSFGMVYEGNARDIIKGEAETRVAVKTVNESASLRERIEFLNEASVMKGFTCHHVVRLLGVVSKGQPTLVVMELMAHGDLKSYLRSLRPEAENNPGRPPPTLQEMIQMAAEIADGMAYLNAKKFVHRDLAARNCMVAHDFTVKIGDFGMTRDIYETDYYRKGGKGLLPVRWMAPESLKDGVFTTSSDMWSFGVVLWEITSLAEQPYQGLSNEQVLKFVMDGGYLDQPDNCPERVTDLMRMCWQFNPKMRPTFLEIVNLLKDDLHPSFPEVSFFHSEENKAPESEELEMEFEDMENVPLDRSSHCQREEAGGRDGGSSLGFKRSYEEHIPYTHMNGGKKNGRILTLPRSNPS
Chain of insulin receptor A (P06213 763-1382 partner limits assumed): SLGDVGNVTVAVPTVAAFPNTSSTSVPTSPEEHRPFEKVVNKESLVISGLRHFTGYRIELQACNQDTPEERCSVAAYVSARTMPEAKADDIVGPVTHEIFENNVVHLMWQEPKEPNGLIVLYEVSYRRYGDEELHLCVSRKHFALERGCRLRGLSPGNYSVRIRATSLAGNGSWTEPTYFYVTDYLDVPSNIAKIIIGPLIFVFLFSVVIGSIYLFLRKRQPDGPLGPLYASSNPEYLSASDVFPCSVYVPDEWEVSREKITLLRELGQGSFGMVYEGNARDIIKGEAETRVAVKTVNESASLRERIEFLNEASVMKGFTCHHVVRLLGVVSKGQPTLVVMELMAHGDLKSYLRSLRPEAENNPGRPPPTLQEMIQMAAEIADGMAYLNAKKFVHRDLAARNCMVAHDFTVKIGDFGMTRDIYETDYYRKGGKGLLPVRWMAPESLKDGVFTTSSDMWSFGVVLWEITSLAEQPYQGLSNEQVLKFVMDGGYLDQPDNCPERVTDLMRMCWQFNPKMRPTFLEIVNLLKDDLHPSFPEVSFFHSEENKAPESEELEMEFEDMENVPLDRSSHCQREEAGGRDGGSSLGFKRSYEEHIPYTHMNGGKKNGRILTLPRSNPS

## (A14A, A21G, A22(GQAP)18, A94G, A95Q, A96A, A97K^, A98P, B29R, desB30 human insulin)/(227A, 234A, 235K, 297E, 315Q, 384Q, des447 hIgG4-Fc(228-447))4-[bis[2-[(2-acetyl)amino]ethyl]amino]-4-oxo-butanoyl Conjugate [Example 5.25]
[1]
  Insulin receptor affinity [IC50 relative to HI (%)] Mean Value: 4.49%
[2]; dose 30 nmol/kg, time 0 days
  Average blood glucose: 5.724 mM
[2]; [4]
  Average blood glucose: 6.104 mM
[2]; [5]
  Average blood glucose: 4.9 mM
[2]; [6]
  Average blood glucose: 4.032 mM
[2]; dose 30 nmol/kg, time 1 day
  Average blood glucose: 3.28 mM
[2]; dose 30 nmol/kg, time 2 days
  Average blood glucose: 3.864 mM
[2]; dose 30 nmol/kg, time 3 days
  Average blood glucose: 6.224 mM
[2]; dose 30 nmol/kg, time 4 days
  Average blood glucose: 5.976 mM
[2]; dose 30 nmol/kg, time 5 days
  Average blood glucose: 6.036 mM
[2]; dose 30 nmol/kg, time 6 days
  Average blood glucose: 6.496 mM
[2]; dose 30 nmol/kg, time 7 days
  Average blood glucose: 6.14 mM
[2]; dose 30 nmol/kg, time 8 days
  Average blood glucose: 6.452 mM
[2]; dose 30 nmol/kg, time 9 days
  Average blood glucose: 6.528 mM
[2]; dose 30 nmol/kg, time 10 days
  Average blood glucose: 6.144 mM
[3]
  Lipogenesis in rat adipocytes [Potency (%)] Mean Value: 2.08%

## (A14E, A21G, A22(GQAP)18, A94G, A95Q, A96A, A97K^, A98P, B16E, B25H, B29R, desB30 human insulin)/(227A, 234A, 235K, 297E, 315Q, 384Q, des447 hIgG4-Fc(228-447))4-[bis[2-[(2-acetyl)amino]ethyl]amino]-4-oxo-butanoyl Conjugate [Example 5.31]
[1]
  Insulin receptor affinity [IC50 relative to HI (%)] Mean Value: 0.47%
[3]
  Lipogenesis in rat adipocytes [Potency (%)] Mean Value: 0.60%

## (A14E, A21G, A22(GQAP)24, A118G, A119Q, A120A, A121K^, A122P, B25H, B29R, desB30 human insulin)/(227A, 234A, 235K, 297E, 315Q, 3840, des447 hIgG4-Fc(228-447))3,5-bis[(2-acetyl)amino]benzoyl Conjugate [Example 5.22]
[1]
  Insulin receptor affinity [IC50 relative to HI (%)] Mean Value: 3.56%
[3]
  Lipogenesis in rat adipocytes [Potency (%)] Mean Value: 4.64%

## (A14E, A21G, A22(GQAP)24, A118G, A119Q, A120A, A121K^, A122P, B29R, desB30 human insulin)/(227A, 234A, 235K, 297E, 315Q, 384Q, des447 hIgG4-Fc(228-447))3,5-bis[(2-acetyl)amino]benzoyl Conjugate [Example 5.29]
[1]
  Insulin receptor affinity [IC50 relative to HI (%)] Mean Value: 3.06%
[3]
  Lipogenesis in rat adipocytes [Potency (%)] Mean Value: 2.64%

## (A14E, A21G, A22(GQEP)19, 98K^, A99P, B25H, B29R, desB30 human insulin)/(226A, 227G, 228P, 234A, 235K, des447 hIgG4-Fc(228-447))3,5-bis[(2-acetyl)amino]benzoyl Conjugate [Example 5.33]
[1]
  Insulin receptor affinity [IC50 relative to HI (%)] Mean Value: 3.85%
[2]; dose 30 nmol/kg, time 0 days
  Average blood glucose: 5.496 mM
[2]; [4]
  Average blood glucose: 5.284 mM
[2]; [5]
  Average blood glucose: 4.716 mM
[2]; [6]
  Average blood glucose: 3.744 mM
[2]; dose 30 nmol/kg, time 1 day
  Average blood glucose: 3.744 mM
[2]; dose 30 nmol/kg, time 2 days
  Average blood glucose: 2.232 mM
[2]; dose 30 nmol/kg, time 3 days
  Average blood glucose: 1.844 mM
[2]; dose 30 nmol/kg, time 4 days
  Average blood glucose: 2.432 mM
[2]; dose 30 nmol/kg, time 5 days
  Average blood glucose: 3.98 mM
[2]; dose 30 nmol/kg, time 6 days
  Average blood glucose: 6.132 mM
[2]; dose 30 nmol/kg, time 7 days
  Average blood glucose: 5.712 mM
[2]; dose 30 nmol/kg, time 8 days
  Average blood glucose: 5.38 mM
[2]; dose 30 nmol/kg, time 9 days
  Average blood glucose: 5.316 mM
[2]; dose 30 nmol/kg, time 10 days
  Average blood glucose: 5.44 mM
[3]
  Lipogenesis in rat adipocytes [Potency (%)] Mean Value: 5.44%

## (A14E, A21G, A22(GQEP)19, A98K^, A99P, B25H, B29R, desB30 human insulin)/(227A, 234A, 235K hIgG4-Fc(228-447))4-[bis[2-[(2-acetyl)amino]ethyl]amino]-4-oxo-butanoyl Conjugate [Example 5.1]
[1]
  Insulin receptor affinity [IC50 relative to HI (%)] Mean Value: 5.07%
[2]; dose 30 nmol/kg, time 0 days
  Average blood glucose: 6.68 mM
[2]; [4]
  Average blood glucose: 5.888 mM
[2]; [5]
  Average blood glucose: 4.988 mM
[2]; [6]
  Average blood glucose: 3.752 mM
[2]; dose 30 nmol/kg, time 1 day
  Average blood glucose: 2.524 mM
[2]; dose 30 nmol/kg, time 2 days
  Average blood glucose: 2.036 mM
[2]; dose 30 nmol/kg, time 3 days
  Average blood glucose: 2.964 mM
[2]; dose 30 nmol/kg, time 4 days
  Average blood glucose: 3.244 mM
[2]; dose 30 nmol/kg, time 6 days
  Average blood glucose: 6.508 mM
[2]; dose 30 nmol/kg, time 7 days
  Average blood glucose: 6.18 mM
[2]; dose 30 nmol/kg, time 8 days
  Average blood glucose: 5.996 mM
[3]
  Lipogenesis in rat adipocytes [Potency (%)] Mean Value: 6.69%

## A14E, A21G, A22(GQAPGQAPGQAPGQEP)6-GQAP, A122K^, A123P, B25H, B29R, desB30 human insulin/(227A, 234A, 235K, 297E, 315Q, 384Q, des447 hIgG4-Fc(228-447))4-[bis[2-[(2-acetyl)amino]ethyl]amino]-4-oxo-butanoyl Conjugate [Example 5.20]
[1]
  Insulin receptor affinity [IC50 relative to HI (%)] Mean Value: 5.49%
[3]
  Lipogenesis in rat adipocytes [Potency (%)] Mean Value: 5.41%

## A14E, A21G, A22(GQAPGQAPGQEP)6-GQAP, A98K^, A99P, B3Q, B25H, B29R, desB30 human insulin/(227A, 234A, 235K hIgG4-Fc(228-447))4-[bis[2-[(2-acetyl)amino]ethyl]amino]-4-oxo-butanoyl Conjugate [Example 5.5]
[1]
  Insulin receptor affinity [IC50 relative to HI (%)] Mean Value: 3.34%
[2]; dose 30 nmol/kg, time 0 days
  Average blood glucose: 5.266 mM
[2]; [4]
  Average blood glucose: 5.276 mM
[2]; [5]
  Average blood glucose: 4.894 mM
[2]; dose 30 nmol/kg, time 0.208333 days
  Average blood glucose: 4.422 mM
[2]; [6]
  Average blood glucose: 4.358 mM
[2]; dose 30 nmol/kg, time 1 day
  Average blood glucose: 3.106 mM
[2]; dose 30 nmol/kg, time 2 days
  Average blood glucose: 2.33 mM
[2]; dose 30 nmol/kg, time 3 days
  Average blood glucose: 2.786 mM
[2]; dose 30 nmol/kg, time 4 days
  Average blood glucose: 4.764 mM
[2]; dose 30 nmol/kg, time 5 days
  Average blood glucose: 5.842 mM
[2]; dose 30 nmol/kg, time 6 days
  Average blood glucose: 6.016 mM
[2]; dose 30 nmol/kg, time 7 days
  Average blood glucose: 5.76 mM
[2]; dose 30 nmol/kg, time 8 days
  Average blood glucose: 5.794 mM
[3]
  Lipogenesis in rat adipocytes [Potency (%)] Mean Value: 2.21%

## A14E, A21G, A22(GQAPGQAPGQEP)6-GQAP, A98K^, A99P, B3Q, B25H, B29R, desB30 human insulin/(227A, 234A, 235K, 297E, 315Q, 384Q, des447 hIgG4-Fc(228-447))4-[bis[2-[(2-acetyl)amino]ethyl]carbamoylamino]butanoyl Conjugate [Example 5.24]
[1]
  Insulin receptor affinity [IC50 relative to HI (%)] Mean Value: 4.60%
[2]; dose 30 nmol/kg, time 0 days
  Average blood glucose: 5.604 mM
[2]; [4]
  Average blood glucose: 5.98 mM
[2]; [5]
  Average blood glucose: 5.172 mM
[2]; [6]
  Average blood glucose: 4.164 mM
[2]; dose 30 nmol/kg, time 1 day
  Average blood glucose: 2.924 mM
[2]; dose 30 nmol/kg, time 2 days
  Average blood glucose: 3.128 mM
[2]; dose 30 nmol/kg, time 3 days
  Average blood glucose: 3.352 mM
[2]; dose 30 nmol/kg, time 4 days
  Average blood glucose: 6.272 mM
[2]; dose 30 nmol/kg, time 5 days
  Average blood glucose: 5.788 mM
[2]; dose 30 nmol/kg, time 6 days
  Average blood glucose: 5.824 mM
[2]; dose 30 nmol/kg, time 7 days
  Average blood glucose: 6.092 mM
[2]; dose 30 nmol/kg, time 8 days
  Average blood glucose: 6.016 mM
[2]; dose 30 nmol/kg, time 9 days
  Average blood glucose: 5.872 mM
[2]; dose 30 nmol/kg, time 10 days
  Average blood glucose: 6.072 mM
[3]
  Lipogenesis in rat adipocytes [Potency (%)] Mean Value: 3.83%

## A14E, A21G, A22(GQEP)3, A34G, A350, A36E, A37K^, A38P, B25H, B29R, desB30 human insulin/(227A, 234A, 235K hIgG4-Fc(228-447))4-[bis[2-[(2-acetyl)amino]ethyl]amino]-4-oxo-butanoyl Conjugate [Example 5.10]
[1]
  Insulin receptor affinity [IC50 relative to HI (%)] Mean Value: 2.47%

## A14E, A21G, A22(GQEP)6, A46K^, A47P, B25H, B29R, desB30 human insulin/(227A, 234A, 235K, 297E, 315Q, 384Q, des447 hIgG4-Fc(228-447))4-[bis[2-[(2-acetyl)amino]ethyl]amino]-4-oxo-butanoyl Conjugate [Example 5.32]
[1]
  Insulin receptor affinity [IC50 relative to HI (%)] Mean Value: 2.16%
[3]
  Lipogenesis in rat adipocytes [Potency (%)] Mean Value: 3.72%

## A14E, A21G, A22(GQEP)19, A98K^, A99P, B3Q, B25H, B29R, desB30 human insulin/(227A, 234A, 235K hIgG4-Fc(228-447))4-[bis[2-[(2-acetyl)amino]ethyl]amino]-4-oxo-butanoyl Conjugate [Example 5.6]
[1]
  Insulin receptor affinity [IC50 relative to HI (%)] Mean Value: 5.07%
[2]; dose 30 nmol/kg, time 0 days
  Average blood glucose: 6.46 mM
[2]; [4]
  Average blood glucose: 6.024 mM
[2]; [5]
  Average blood glucose: 5.092 mM
[2]; [6]
  Average blood glucose: 3.90 mM
[2]; dose 30 nmol/kg, time 1 day
  Average blood glucose: 2.808 mM
[2]; dose 30 nmol/kg, time 2 days
  Average blood glucose: 2.464 mM
[2]; dose 30 nmol/kg, time 3 days
  Average blood glucose: 2.996 mM
[2]; dose 30 nmol/kg, time 4 days
  Average blood glucose: 2.996 mM
[2]; dose 30 nmol/kg, time 6 days
  Average blood glucose: 5.98 mM
[2]; dose 30 nmol/kg, time 7 days
  Average blood glucose: 5.82 mM
[2]; dose 30 nmol/kg, time 8 days
  Average blood glucose: 6.012 mM

## insulin degludec [reference compound]
[2]; 3-fold higher dose (90 nmol/kg)
  time over which blood glucose was lowered: less than half a day
[2]; dose 90 nmol/kg, time 0 days
  Average blood glucose: 5.382 mM
[2]; dose 90 nmol/kg, time 0.020833 days
  Average blood glucose: 4.104 mM
[2]; dose 90 nmol/kg, time 0.041667 days
  Average blood glucose: 3.182 mM
[2]; dose 90 nmol/kg, time 0.083333 days
  Average blood glucose: 2.718 mM
[2]; dose 90 nmol/kg, time 0.166667 days
  Average blood glucose: 2.336 mM
[2]; dose 90 nmol/kg, time 0.25 days
  Average blood glucose: 3.424 mM
[2]; dose 90 nmol/kg, time 0.3336 days
  Average blood glucose: 4.292 mM
[2]; dose 90 nmol/kg, time 0.5 days
  Average blood glucose: 5.302 mM
[2]; dose 90 nmol/kg, time 1 day
  Average blood glucose: 5.758 mM
